Assay results as given in the supplement of paper PMC10307832.

compound: COCC[n+]1c2c(n(Cc3cnccn3)c1C)C(=O)c1ccccc1C2=O [YM155] + Nc1ncn([C@H]2C[C@H](O)[C@@H](CO)O2)c(=O)n1 [Decitabine] (partner 2 µM); experiment: relative viability (nuclei count vs DMSO), 5 days (fraction); higher = more cells survive; conditions: first compound 0.006325 µM
Procedure, shortened: (§1)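 Medians of duplicate plates are given as relative viability. That measure is the nuclei count in treated wells divided by the count in vehicle wells. Counts were taken on 4× images of lung cancer cell lines in 1536-well plates, 5 days after pin-tool dosing the day after seeding with one drug alone or a fixed anchor-drug dose plus five library-drug doses (not always all listed) in √10 steps.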

| Cell Line | relative viability |
| --- | --- |
| NCI-H1355 | 0.374 |
| H3255 | 0.645 |
| NCI-H1792 | 0.514 |
| NCI-H647 | 0.405 |
| LCLC-97TM1 | 0.178 |
| LXF-289 | 0.39 |
| LU99A | 0.808 |
| NCI-H2023 | 0.201 |
| NCI-H1437 | 0.539 |
| NCI-H2009 | 0.383 |
| COR-L 105 | 0.671 |
| SK-LU-1 | 0.695 |
| SW 900 | 0.431 |
| NCI-H661 | 0.516 |
| A549 | 0.215 |
| NCI-H2342 | 0.709 |
| SW 1573 | 0.461 |
| NCI-H1650 | 0.384 |
| COR-L23 | 0.315 |
| NCI-H522 | 0.664 |

same assay, conditions: first compound 0.02 µM

| Cell Line | relative viability |
| --- | --- |
| EKVX | 0.312 |
| EPLC-272H | 0.352 |
| NCI-H520 | 0.531 |
| NCI-H650 | 0.282 |
| RERF-LC-KJ | 0.787 |
| HCC-827 | 0.299 |
| NCI-H2087 | 0.245 |
| SK-MES-1 | 0.285 |
| NCI-H1651 | 0.627 |
| UMC-11 | 0.725 |
| NCI-H1355 | 0.383 |
| H3255 | 0.622 |
| NCI-H1792 | 0.6 |
| NCI-H647 | 0.288 |
| LCLC-97TM1 | 0.202 |
| LXF-289 | 0.371 |
| LU99A | 0.824 |
| NCI-H2023 | 0.193 |
| NCI-H1437 | 0.567 |
| NCI-H2009 | 0.362 |
| COR-L 105 | 0.519 |
| SK-LU-1 | 0.63 |
| SW 900 | 0.399 |
| NCI-H661 | 0.533 |
| A549 | 0.29 |
| NCI-H2342 | 0.788 |
| SW 1573 | 0.243 |
| NCI-H1650 | 0.452 |
| COR-L23 | 0.317 |
| NCI-H522 | 0.684 |

same assay, conditions: first compound 0.06325 µM

| Cell Line | relative viability |
| --- | --- |
| EKVX | 0.228 |
| EPLC-272H | 0.365 |
| NCI-H520 | 0.397 |
| NCI-H650 | 0.293 |
| RERF-LC-KJ | 0.737 |
| HCC-827 | 0.354 |
| NCI-H2087 | 0.293 |
| SK-MES-1 | 0.21 |
| NCI-H1651 | 0.586 |
| UMC-11 | 0.626 |
| NCI-H1355 | 0.357 |
| H3255 | 0.558 |
| NCI-H1792 | 0.566 |
| NCI-H647 | 0.272 |
| LCLC-97TM1 | 0.254 |
| LXF-289 | 0.379 |
| LU99A | 0.936 |
| NCI-H2023 | 0.184 |
| NCI-H1437 | 0.472 |
| NCI-H2009 | 0.36 |
| COR-L 105 | 0.442 |
| SK-LU-1 | 0.506 |
| SW 900 | 0.458 |
| NCI-H661 | 0.47 |
| A549 | 0.24 |
| NCI-H2342 | 0.717 |
| SW 1573 | 0.136 |
| NCI-H1650 | 0.203 |
| COR-L23 | 0.169 |
| NCI-H522 | 0.668 |

compound: CC(C)(C)c1cc(NC(=O)Nc2ccc(-c3cn4c(n3)sc3cc(OCCN5CCOCC5)ccc34)cc2)no1 [Quizartinib] + O=C(c1cc(Cc2n[nH]c(=O)c3ccccc23)ccc1F)N1CCN(C(=O)C2CC2)CC1 [Olaparib] (partner 8 µM); experiment: as above; conditions: first compound 0.001 µM
Procedure, shortened: as §1

| Cell Line | relative viability |
| --- | --- |
| EPLC-272H | 0.946 |
| NCI-H650 | 0.373 |
| RERF-LC-KJ | 0.931 |
| HCC-827 | 0.653 |
| NCI-H2087 | 0.654 |
| SK-MES-1 | 0.685 |
| NCI-H1299 | 0.949 |
| NCI-H1651 | 0.163 |
| UMC-11 | 0.365 |
| NCI-H1355 | 0.659 |
| H3255 | 0.516 |
| NCI-H1792 | 0.443 |
| NCI-H647 | 0.622 |
| Calu-6 | 0.604 |
| LCLC-97TM1 | 0.333 |
| NCI-H1703 | 0.488 |
| LXF-289 | 0.901 |

| Cell Line | relative viability |
| --- | --- |
| LU99A | 0.253 |
| NCI-H2023 | 0.418 |
| NCI-H2228 | 0.696 |
| NCI-H1437 | 0.613 |
| NCI-H2009 | 0.658 |
| EBC-1 | 0.732 |
| COR-L 105 | 0.705 |
| SK-LU-1 | 0.462 |
| IA-LM | 0.908 |
| SW 900 | 0.803 |
| NCI-H661 | 0.727 |
| CAL-12T | 0.617 |
| NCI-H2342 | 0.415 |
| SW 1573 | 0.292 |
| NCI-H1650 | 0.793 |
| COR-L23 | 0.34 |
| NCI-H522 | 0.61 |

same assay, conditions: first compound 0.003162 µM

| Cell Line | relative viability |
| --- | --- |
| EKVX | 0.821 |
| EPLC-272H | 0.635 |
| NCI-H520 | 0.308 |
| NCI-H650 | 0.334 |
| RERF-LC-KJ | 0.807 |
| HCC-827 | 0.556 |
| NCI-H2087 | 0.578 |
| SK-MES-1 | 0.678 |
| NCI-H1299 | 0.967 |
| NCI-H1651 | 0.174 |
| UMC-11 | 0.349 |
| NCI-H1355 | 0.737 |
| H3255 | 0.552 |
| NCI-H1792 | 0.381 |
